Active and inactive are the calls of the source.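 How the source made its calls: active means a full or partial dose-response curve in at least two of three replicate runs; inactive means the rest.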

The target of the assay is D(1B) dopamine receptor (Homo sapiens) (UniProt P21918). Kind of assay: D5 receptor allosteric modulators, concentration-response – cell-based, HEK293, CRE-luciferase, luminescence, EC30 dopamine, selectivity assay for D1 allosteric modulator project, dose response (AID 857).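 Further: HEK 293 cells expressing human D5 with a CRE-driven luciferase reporter.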
D(1B) dopamine receptor (Homo sapiens), sequence (P21918 whole entry, looked up): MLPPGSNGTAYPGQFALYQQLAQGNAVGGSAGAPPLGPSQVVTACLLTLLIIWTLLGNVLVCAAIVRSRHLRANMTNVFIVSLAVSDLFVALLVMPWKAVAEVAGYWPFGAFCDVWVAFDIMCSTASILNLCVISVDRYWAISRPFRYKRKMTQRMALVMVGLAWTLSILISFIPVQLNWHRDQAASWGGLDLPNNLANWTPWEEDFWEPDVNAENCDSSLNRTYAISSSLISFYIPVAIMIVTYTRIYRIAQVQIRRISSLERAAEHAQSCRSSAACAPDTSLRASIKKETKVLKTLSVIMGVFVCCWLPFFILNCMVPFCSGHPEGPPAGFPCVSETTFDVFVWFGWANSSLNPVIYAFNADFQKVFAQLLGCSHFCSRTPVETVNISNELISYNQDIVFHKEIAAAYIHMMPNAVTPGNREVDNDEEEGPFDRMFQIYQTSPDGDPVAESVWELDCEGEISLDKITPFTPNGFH
Take `Cn1c(=O)c2c(-c3ccccc3)n(N3CCOCC3)cc2n(C)c1=O`: the outcome was inactive.

In the case of `CCCc1cc(C(=O)Nc2sc(C(C)=O)c(C)c2C(=O)OCC)no1`, the result was inactive. Regarding `c1ccc(C2=Nn3c(nnc3-c3ccncc3)SC2)cc1`, the outcome was inactive. Take `COc1ccccc1NC(=O)N(Cc1ccc2c(c1)OCO2)Cc1nc2ccccc2c(=O)[nH]1`: the outcome was inactive. `O=C1CSc2ccccc2N1Cc1ccccc1F`: the result was inactive. Regarding `CSc1ccccc1NC(=O)c1onc(C)c1Cl`, the outcome was inactive. In the case of `Brc1ccc(-c2nn3c(Cc4ccccc4)nnc3s2)o1`, the result was inactive. Still for that read-out and setting: as for `Cc1nc(-c2ccc(S(=O)(=O)N3CCCCCC3)cc2)cs1`, the entry is “inactive”; as for `COCCNc1oc(-c2ccc(C)cc2)nc1C#N`, “inactive”; as for `CCn1c(SCc2cccnc2)nc2c1c(=O)n(C)c(=O)n2C`, “inactive”. The same measure, in the same setting: with `CCOc1cc(C2C(C#N)=C(N)Oc3n[nH]c(-c4ccccc4)c32)ccc1O` (stereo unspecified) the entry was “inactive”; with `C=CCSc1nnc2n(-c3ccccc3OC)c(=O)c3c4c(sc3n12)CCC4`, “inactive”. As to `Cc1cc(O)c(C=Nc2cccc(Cl)c2)c(=O)o1`, the outcome was inactive. For the compound `O=C1CC(c2ccsc2)c2cc3c(cc2N1)OCCO3` (stereo unspecified), the result was inactive. With `Cc1cc(NCCCn2ccnc2)n2c(nc3ccccc32)c1C#N`, the outcome was inactive. Turning to `CCc1nc2sc3ccccc3c(=O)c2c(=O)n1Cc1ccco1`, the outcome was inactive.

For the compound `CCCCCn1c(NCc2ccco2)nc2ccccc21`, the result was inactive. Regarding `CCn1nc(C(=O)NC2=NCCS2)c2ccccc2c1=O`, the outcome was inactive. The same measure, in the same setting: as for `Cc1cc(N2CCN(S(=O)(=O)c3ccc4c(c3)OCCO4)CC2)n2ncnc2n1`, the entry is “inactive”.

As to `C/C=C/Cn1c(SCCCc2ccccc2)nc2c1c(=O)[nH]c(=O)n2C`, the outcome was inactive. On to `Cc1[nH]n(-c2ccccc2)c(=O)c1S(=O)(=O)c1ccccc1`, for which the result was inactive. Still for that read-out and setting: as for `COc1ccc(Cn2nnc3c(=O)[nH]c(C4CCCN(C(=O)c5ccccc5)C4)nc32)cc1` (stereo unspecified), the entry is “inactive”; as for `COC(=O)C(C)C1Sc2ccccc2NC1=O` (stereo unspecified), “inactive”. For the compound `N#Cc1nc(N)nc(N(c2ccccc2)c2ccccc2)n1`, the result was inactive. In the case of `COc1ccc(-c2cc(=O)oc3c(C)c(O)c(CN(C)C)cc23)cc1`, the result was inactive. On to `O=C1COc2ccccc2N1Cc1ccccc1Cl`, for which the result was inactive. Regarding `CCn1cc(C(=O)OCC(=O)OC2CC(C)CCC2C(C)C)c(=O)c2ccc(C)nc21` (stereo unspecified), the outcome was inactive.

As for `CCc1nnc(NC(=O)CSc2ncc(-c3ccccc3)n2CC)s1`, the result was inactive.

Turning to `Fc1cc(Br)ccc1Nc1nc2ccccc2n2nnnc12`, the outcome was inactive. In the case of `CCOC(=O)C(C)Oc1cccc2c(=O)n(CC(=O)NCc3ccco3)ccc12` (stereo unspecified), the result was inactive. Take `COc1ccc(-c2noc(CCC(N)=O)n2)cc1OC`: the outcome was inactive. Still for that read-out and setting: as for `CCOc1nc(NCCc2ccc(OC)c(OC)c2)nc(NC(C)(C)CO)n1`, the entry is “inactive”; as for `Cc1cc(-c2cccs2)c2c(n1)sc1c(=O)[nH]c(=O)[nH]c12`, “inactive”. On to `CSC1=NCCN1C(=O)c1ccc(Br)o1`, for which the result was inactive.

Turning to `CCOC(=O)c1oc2ccc(Br)cc2c1NC(=O)CN1CCN(C)CC1`, the outcome was inactive. Still for that read-out and setting: as for `Cc1ccccc1NC(=O)c1nc[nH]c1C(=O)NCc1ccccc1`, the entry is “inactive”; as for `COc1ccc(N2C(=O)C3CCCN3C2c2ccccc2)cc1Cl` (stereo unspecified), “inactive”. Same read-out and setting: as for `Cc1cc(=O)n(CC=C(Cl)Cl)c2ccccc12`, the entry is “inactive”. With `Cc1ccc(-n2cnnn2)c2cccnc12`, the outcome was inactive. As to `CCOC(=O)N1CCC(N2Cc3cccc(C(=O)NC(C)c4ccc5c(c4)OCCO5)c3C2=O)CC1` (stereo unspecified), the result was inactive. The same measure, in the same setting: as for `COc1ccc(OC)c(C2C=C(c3ccc(C)c(C)c3)Nc3nnnn32)c1` (stereo unspecified), the entry is “inactive”; as for `COc1cccc(N2C(=O)C3ON(c4ccccc4)C(c4cccs4)C3C2=O)c1` (stereo unspecified), “inactive”. Still for that read-out and setting: as for `CC(=O)c1cc(C#N)c(SCc2ccncc2)nc1C`, the entry is “inactive”. On to `Cc1sc2nc(CN3CCN(S(=O)(=O)c4cccc5nonc45)CC3)[nH]c(=O)c2c1C`, for which the result was inactive. Still for that read-out and setting: with `COc1ccc2c(c1)C(=O)N(c1ccccc1OC)C(=O)C2(C)C` the entry was “inactive”; with `CCSc1nc2c(c(=O)n1Cc1ccccc1)SC(C)C2` (stereo unspecified), “inactive”; with `O=C(OCCCCN1C(=O)c2ccccc2C1=O)c1n[nH]c2ccccc12`, “inactive”. For the compound `CCSc1nc(-c2ccco2)ccc1C#N`, the outcome was inactive. As for `Cc1cc(C)n(-c2nc3ccccc3nc2Nc2ccc(CC(=O)O)cc2)n1`, the EC50 (usually the concentration at which the effect is half-maximal) was 1110 nM. In the case of `CCOc1ccccc1C1NC(=O)NC(C)=C1C(=O)OC1CCCCC1` (stereo unspecified), the outcome was inactive. The same measure, in the same setting: as for `CCCCn1c(=NC(=O)c2ccco2)c(C(=O)OCC)cc2c(=O)n3ccccc3nc21`, the entry is “inactive”. The same measure, in the same setting: with `Cc1cccc(Cc2c(C)nc3c(C(=O)NCc4ccco4)cnn3c2C)c1` the entry was “inactive”; with `CCCCCn1c(N)c(C#N)c2nc3ccccc3nc21`, “inactive”; with `CCOC(=O)c1c(C)oc2c1c(C=NCc1ccccn1)c(O)c1ccccc12`, “inactive”. With `Nc1ncnc2c1ncn2CCOc1ccccc1`, the outcome was inactive. Consider `N#Cc1c(N)nc(-c2ccccc2)nc1-c1ccccc1`, for which the outcome was inactive. As to `Cn1c(=O)c2[nH]c(NCC3CCCO3)nc2n(-c2ccccc2)c1=O` (stereo unspecified), the result was inactive. Still for that read-out and setting: as for `COC(=O)c1ccc(COc2nc(C)cc(C)c2C#N)o1`, the entry is “inactive”. For the compound `C=CCn1c(=S)[nH]c2nc3c(cc2c1=O)CCCC3`, the outcome was inactive. `Clc1ccccc1Cn1nnc2c(N3CCCC3)ncnc21`: the outcome was inactive. Regarding `Nc1nc(CN2CCN(c3ccccc3)CC2)nc(N2CCCc3ccccc32)n1`, the outcome was inactive.

Consider `CCC(=O)Nc1cccc(NC(=O)c2cc3ccccc3o2)c1`, for which the outcome was inactive. For the compound `Cc1cc(C)nc(SCC(=O)N2CCCCC2)n1`, the result was inactive. Consider `CCCCSc1nc2c(cnn2-c2ccc(F)cc2)c(=O)[nH]1`, for which the result was inactive.

For `N#Cc1nc(-c2ccccc2Cl)oc1N1CCOCC1`, the outcome was inactive. `N#Cc1cc2ccccc2nc1SCC(=O)Nc1ccc(S(=O)(=O)N2CCCC2)cc1`: the result was inactive.

As for `COc1nc(C)ccc1-c1noc(-c2ccncc2)n1`, the result was inactive. As for `CCCn1c(=O)c2ccccc2n2c(SCc3nc4ccccc4s3)nnc12`, the result was inactive. The same measure, in the same setting: as for `CCOC(=O)c1[nH]cnc1C(=O)Nc1ccccn1`, the entry is “inactive”; as for `CCC(C)Sc1nc2c(c(=O)n1C)SC(C)C2` (stereo unspecified), “inactive”. For `c1csc(-c2nn3c(Cn4nnc5ccccc54)nnc3s2)c1`, the outcome was inactive.

Values taken from PubChem BioAssay AID857 (Vanderbilt High Throughput Screening Facility, 2007).
